In paper PMC6476888, “Design and synthesis of anticancer 1-hydroxynaphthalene-2-carboxanilides with a p53 independent mechanism of action” (Scientific Reports, 2019):
Like-named read-outs stand apart in the source and are kept apart here.

How the values were obtained:
NHDF = assay: Cytotoxicity (MTS, 72 h) against normal human fibroblasts; format: cell-based; settings: for IC50: MTS, 72 h incubation
Description: (§1) All of the synthesized compounds were tested for their antiproliferative activity against human colon cancer (Table 1). We used both the wild-type and p53-negative cell lines (HCT116^+/+ and HCT116^−/−, respectively). Mutations in the TP53 gene are present in more than 50% of all cancers and often specifically correspond to a difficult therapy, resistance or a bad prognosis[60]–[63]. The active compounds were additionally tested for their cytotoxicity against normal human fibroblasts. We used 5-fluorouracil (5-FLU), doxorubicin (DOX) and CP-31398 as the standards. 5-FLU is one of the first antimetabolites that was dedicated for cancer treatment and is still used for a wide range of cancers including colon carcinoma. Doxorubicin is a DNA topoisomerase II poison with a high intercalating potency, which is able to induce apoptosis through the p53 pathway. Although DOX has been described as being ineffective in some p53 mutants, its level of activity against the p53 null lines is similar. CP-31398, on the other hand, is an experimental drug in the clinical phase and its mechanism of action is through the reactivation some of p53 mutants. Its activity against the p53 null cell lines is greatly diminished and is actually lower than its cytotoxicity.
(§2) The human colon cancer cell line HCT116 wild type was obtained from ATCC and the normal human fibroblast cell lines NHDF were obtained from PromoCell. The human colon cancer cell line HCT116 with a p53 deletion (p53^−/−) was kindly provided by Prof. M. Rusin from the Maria Sklodowska-Curie Memorial Cancer Centre and Institute of Oncology in Gliwice, Poland[89]. The cells were grown as monolayer cultures in Dulbecco’s modified Eagle’s medium with the antibiotic gentamicin (200 μL/100 mL medium) in 75 cm^2 flasks (Nunc). The DMEM for the HCT116 were supplemented with 12% heat-inactivated fetal bovine serum (Sigma-Aldrich, St. Louis, MO, USA) and for NHDF with 15% non-inactivated fetal bovine serum (Sigma Aldrich, St. Louis, MO, USA). The cells were cultured under standard conditions at 37 °C in a humidified atmosphere at 5% CO2.
(§3) The cells were seeded in 96-well plates (Nunc) at a density of 5,000 cells/well (HCT116) and 4,000 cells/well (NHDF) and incubated at 37 °C for 24 h. The assay was performed following a 72 h incubation with varying concentrations of the compounds that were being tested. Then, 20 µL of CellTiter 96® AQueous One Solution-MTS (Promega) was added to each well (with 100 µL DMEM without phenol red) and incubated for 1 h at 37 °C. The optical densities of the samples were analyzed at 490 nm using a Synergy 4 multi-plate reader (BioTek, Winooski, VT, USA). The results are expressed as the percentage of the control and were calculated as the inhibitory concentration (IC50) values (using a GraphPad Prism 7). The IC50 parameter was defined as the compound concentration that was necessary to reduce the proliferation of cells to 50% of the untreated control. Each individual compound was tested in triplicate in a single experiment with each experiment being repeated three or four times.

HCT116^−/− = assay: Antiproliferative assay (MTS, 72 h) on HCT116 with p53 deletion; format: cell-based, human; settings: for IC50: MTS, 72 h incubation
Description: as §1, §2, §3

HCT116^+/+ = assay: Antiproliferative assay (MTS, 72 h) on HCT116 wild type; format: cell-based, human; settings: MTS, 72 h incubation, read-out: Activity IC50 HCT116^+/+
Description: as §1, §2, §3

Row | Structure (SMILES) | IC50 (NHDF) [µM] | IC50 (HCT116^−/−) [µM] | IC50 (HCT116^+/+) [µM] | further results
1 | O=C(Nc1ccc(C(F)(F)F)cc1Cl)c1ccc2ccccc2c1O [5o] | 13.2 ± 1.97 | 5.41 ± 1.11 | 4.92 ± 1.32 | –
2 | O=C(Nc1cc(Cl)cc(Cl)c1)c1ccc2ccccc2c1O [5i] | 11.5 ± 0.88 | 2.89 ± 0.38 | 2.32 ± 0.26 | –
3 | O=C(Nc1ccc(Br)cc1C(F)(F)F)c1ccc2ccccc2c1O [7i] | – | > 25 | > 25 | –
4 | O=C(Nc1ccc([N+](=O)[O-])cc1)c1ccc2ccccc2c1O [8c] | 12.3 ± 1.49 | 0.69 ± 0.09 | 0.41 ± 0.05 | selectivity index (NHDF; cytotoxicity against the normal cell line vs HCT116): 30
5 | COc1ccc(C(F)(F)F)cc1NC(=O)c1ccc2ccccc2c1O [2i] | – | – | – | IC50 (HCT116^−/−; Homo sapiens, HCT-116): > 25 µM; IC50 (HCT116^+/+; Homo sapiens, HCT-116): > 25 µM
6 | O=C(Nc1ccc(Br)c(Cl)c1)c1ccc2ccccc2c1O [5t] | > 25 | 12.6 ± 0.69 | 12.3 ± 0.79 | selectivity towards the p53 null cells (HCT116 p53^−/− vs wild type) (HCT116^−/−): not selective
7 | Cc1ccc(C)c(NC(=O)c2ccc3ccccc3c2O)c1 [3d] | – | – | – | IC50 (HCT116^−/−; Homo sapiens, HCT-116): > 25 µM; IC50 (HCT116^+/+; Homo sapiens, HCT-116): > 25 µM
8 | O=C(Nc1ccc(Cl)c(Cl)c1)c1ccc2ccccc2c1O [5h] | > 25 | 4.74 ± 0.82 | 5.15 ± 0.5 | selectivity towards the p53 null cells (HCT116 p53^−/− vs wild type) (HCT116^−/−): not selective
9 | COc1cc(NC(=O)c2ccc3ccccc3c2O)cc(OC)c1OC [2f] | > 25 | 8.78 ± 2.13 | 6.54 ± 2.42 | –
10 | O=C(Nc1ccc([N+](=O)[O-])cc1C(F)(F)F)c1ccc2ccccc2c1O [7j] | 12.6 ± 1.32 | 4.74 ± 1.68 | 2.04 ± 0.71 | –
11 | O=C(Nc1ccc(Br)cc1)c1ccc2ccccc2c1O [6c] | > 25 | 11 ± 0.97 | 5.25 ± 0.67 | –
12 | O=C(Nc1cccc(Br)c1)c1ccc2ccccc2c1O [6b] | 15.2 ± 2.48 | 8.73 ± 0.89 | 9.19 ± 0.98 | –
13 | O=C(Nc1ccc(Cl)cc1C(F)(F)F)c1ccc2ccccc2c1O [7h] | – | > 25 | > 25 | –
14 | Cc1ccccc1NC(=O)c1ccc2ccccc2c1O [3a] | – | > 25 | > 25 | –
15 | O=C(Nc1ccc(C(F)(F)F)cc1)c1ccc2ccccc2c1O [7c] | 16.6 ± 2.17 | 1.07 ± 0.26 | 4.31 ± 0.51 | –
16 | COc1ccc(NC(=O)c2ccc3ccccc3c2O)cc1 [2c] | – | > 25 | > 25 | –
17 | O=c1[nH]cc(F)c(=O)[nH]1 [5-FLU, 5-fluorouracil, reference compound] | – | – | – | IC50 (NHDF; Homo sapiens, NHDF): > 25 µM; IC50 (HCT116^−/−; Homo sapiens, HCT-116): 4.69 ± 0.31 µM; IC50 (HCT116^+/+; Homo sapiens, HCT-116): 4.42 ± 0.7 µM
18 | O=C(Nc1ccc(C(F)(F)F)cc1C(F)(F)F)c1ccc2ccccc2c1O [7d] | > 25 | 8.69 ± 1.02 | 11.3 ± 1.31 | –
19 | O=C(Nc1cc(Cl)c(Cl)cc1Cl)c1ccc2ccccc2c1O [5j] | 20.2 ± 0.79 | 6.21 ± 0.66 | 3 ± 0.24 | –
20 | O=C(Nc1ccccc1C(F)(F)F)c1ccc2ccccc2c1O [7a] | – | 21.4 ± 1.24 | > 25 | –
21 | O=C(Nc1ccc(Cl)cc1Cl)c1ccc2ccccc2c1O [5e] | > 25 | 6.06 ± 1.13 | 1.95 ± 0.5 | –
22 | O=C(Nc1ccc(Cl)cc1)c1ccc2ccccc2c1O [5c] | > 25 | 9.41 ± 0.78 | 9.62 ± 0.75 | –
23 | O=C(Nc1cccc([N+](=O)[O-])c1)c1ccc2ccccc2c1O [8b] | > 25 | 3.1 ± 0.63 | 6.82 ± 1.17 | –
24 | O=C(Nc1c(Br)cc(Br)cc1Br)c1ccc2ccccc2c1O [6g] | – | > 25 | > 25 | –
25 | O=C(Nc1c(F)c(F)c(Br)c(F)c1F)c1ccc2ccccc2c1O [4y] | 7.87 ± 1.37 | 5.68 ± 1.37 | 2.41 ± 0.69 | –
26 | O=C(Nc1ccccc1[N+](=O)[O-])c1ccc2ccccc2c1O [8a] | 22.7 ± 2.71 | > 25 | 23.3 ± 3.77 | –
27 | O=C(Nc1cccc(F)c1)c1ccc2ccccc2c1O [4b] | > 25 | 9.02 ± 1.91 | 1.88 ± 0.33 | –
28 | O=C(Nc1c(Cl)cc(Cl)cc1Cl)c1ccc2ccccc2c1O [5k] | > 25 | > 25 | 19.4 ± 1.27 | –
29 | Cc1ccc(NC(=O)c2ccc3ccccc3c2O)cc1 [3c] | – | > 25 | > 25 | –
